This is an account of results in US7718688B2, “Nitrobenzindoles and their use in cancer therapy” (Auckland Uniservices Limited, priority 2004, dated 2010).

Where a name gives a salt, the structure may show the parent alone.

Data set [1] deals with SKOV3: human ovarian carcinoma cell line. Put plainly: Proliferation IC50 assay, oxic/hypoxic, SKOV3. The class given is cell-based. Particulars: Table 3; for IC50: 4 h exposure under aerobic conditions; for HCR (hypoxic cytotoxicity ratio) SKOV3: IC50(aerobic)/IC10(hypoxic).
Data set [2] has as its system HT29: human colon cancer cell line. Briefly: Proliferation IC50 assay, oxic/hypoxic, HT29. The format is cell-based. The conditions noted are these: Table 3; for IC50: 4 h exposure under aerobic conditions; for HCR (hypoxic cytotoxicity ratio) HT29: IC50(aerobic)/IC10(hypoxic).

Consider `NS(=O)(=O)c1ccc2c3c(cc([N+](=O)[O-])c2c1)N(C(=O)c1cc2cc(OCCO)ccc2[nH]1)CC3CCl` (stereo not drawn), for which the melting point fell in the range of 231 to 234 °C.
Turning to `COc1cc2cc(C(=O)N3CC(CCl)c4c3cc([N+](=O)[O-])c3cccc([N+](=O)[O-])c43)[nH]c2c(OC)c1OC` (stereo not drawn) [Compound 51, 1-(Chloromethyl)-5,9-dinitro-(5,6,7-trimethoxyindol-2-carbonyl)-1,2-dihydro-3H-benzo[e]indole], in data set [1], the IC50 is 55 µM. In addition, in data set [2], the IC50 came to 34 µM and the “HCR (hypoxic cytotoxicity ratio) HT29” value is reported as 1.2.
Regarding `CNS(=O)(=O)c1ccc2c3c(cc([N+](=O)[O-])c2c1)N(C(=O)c1cc2cc(OCCN(C)C)ccc2[nH]1)CC3CCl` (stereo not drawn) (as salt: HCl) [Compound 32, 1-(Chloromethyl)-3-{5-[2-(dimethylamino)ethoxy]indol-2-carbonyl}-N-methyl-5-nitro-1,2-dihydro-3H-benzo[e]indole-7-sulfonamide], the melting point was above 350 °C.
In turn, `CN(C)CCOc1ccc2[nH]c(C(=O)N3CC(CCl)c4c3cc([N+](=O)[O-])c3cc(C#N)ccc43)cc2c1` (stereo not drawn) (as salt: HCl) [Compound 22, 1-(Chloromethyl)-3-{5-[2-(dimethylamino)ethoxy]indol-2-carbonyl}-5-nitro-1,2-dihydro-3H-benzo[e]indole-7-carbonitrile] registered a melting point above 300 °C.
Regarding `COc1cc2cc(C(=O)N3CC(CCl)c4c3cc([N+](=O)[O-])c3ccccc43)[nH]c2c(OC)c1OC` (stereo not drawn) [Compound R1, reference compound], the IC50 was found to be 4.2 µM in data set [1] (Homo sapiens, SK-OV-3) and 3.4 µM in data set [2] (Homo sapiens, HT-29). Moreover, in data set [1], the “HCR (hypoxic cytotoxicity ratio) SKOV3” value came to 2.8. Besides, the “HCR (hypoxic cytotoxicity ratio) HT29” value in data set [2] is 2.5.
On the same counts, the results for `CN(C)CCOc1ccc2[nH]c(C(=O)N3CC(CCl)c4c3cc([N+](=O)[O-])c3cc(C(=O)NCCO)ccc43)cc2c1` (stereo not drawn) [Compound 19, 1-(Chloromethyl)-3-(5-[2-(dimethylamino)ethoxy]indol-2-carbonyl)-N-(2-hydroxyethyl)-5-nitro-1,2-dihydro-3H-benzo[e]indole-7-carboxamide] are 8.9 µM, 12 µM, 160 and 490.
In the same order, the values of `CN(C)CCOc1ccc2[nH]c(C(=O)N3CC(CCl)c4c3cc([N+](=O)[O-])c3cc([N+](=O)[O-])ccc43)cc2c1` (stereo not drawn) [Compound 9, 1-(Chloromethyl)-3-{5-[2-(dimethylamino)ethoxy]indol-2-carbonyl}-5,7-dinitro-1,2-dihydro-3H-benzo[e]indole] are 1.1 µM, 0.89 µM, 9.3 and 9.6.
`CC(=O)c1cccc2c3c(cc([N+](=O)[O-])c12)N(C(=O)c1cc2cc(OCCN(C)C)ccc2[nH]1)CC3CCl` (stereo not drawn) [Compound 4]: in data set [1], the IC50 worked out at 0.64 µM and the “HCR (hypoxic cytotoxicity ratio) SKOV3” value worked out at 12. In data set [2], the IC50 came to 0.2 µM and the “HCR (hypoxic cytotoxicity ratio) HT29” value is on record as 5.2.
In the case of `COc1cc2cc(C(=O)N3CC(CCl)c4c3cc([N+](=O)[O-])c3cc(S(N)(=O)=O)ccc43)[nH]c2c(OC)c1OC` (stereo not drawn) [Compound 25, 1-(Chloromethyl)-5-nitro-3-(5,6,7-trimethoxyindol-2-carbonyl)-1,2-dihydro-3H-benzo[e]indole-7-sulfonamide], the IC50 turned out to be 37 µM in data set [1] (Homo sapiens, SK-OV-3) and 43 µM in data set [2] (Homo sapiens, HT-29). Also, the “HCR (hypoxic cytotoxicity ratio) SKOV3” value in data set [1] was 10. In addition, the “HCR (hypoxic cytotoxicity ratio) HT29” value in data set [2] was determined as 3.6.
Turning to `CN(C)CCOc1ccc2[nH]c(C(=O)N3CC(CCl)c4c3cc([N+](=O)[O-])c3cc(S(=O)(=O)NO)ccc43)cc2c1.Cl` (stereo not drawn) [Compound 30, 1-(Chloromethyl)-3-{5-[2-(dimethylamino)ethoxy]indol-2-carbonyl}-N-hydroxy-5-nitro-4,2-dihydro-3H-benzo[e]indole-7-sulfonamide hydrochloride], in data set [1], half-maximal inhibition (IC50) required 24 µM and the “HCR (hypoxic cytotoxicity ratio) SKOV3” value amounted to 55. Also, in data set [2], the IC50 was 24 µM and the “HCR (hypoxic cytotoxicity ratio) HT29” value is 160.
Turning to `CN(C)CCOc1ccc2[nH]c(C(=O)N3CC(CCl)c4c3cc([N+](=O)[O-])c3cc(S(=O)(=O)NN)ccc43)cc2c1.Cl.Cl` (stereo not drawn) [Compound 31, 1-(Chloromethyl)-3-{5-[2-(dimethylamino)ethoxy]indol-2-carbonyl}-5-nitro-1,2-dihydro-3H-benzo[e]indole-7-sulfonohydrazide dihydrochloride], the concentration for half-maximal inhibition (IC50) came out at 33 µM in data set [1] (Homo sapiens, SK-OV-3) and 31 µM in data set [2] (Homo sapiens, HT-29). Moreover, in data set [1], the “HCR (hypoxic cytotoxicity ratio) SKOV3” value stood at 160. In addition, in data set [2], the “HCR (hypoxic cytotoxicity ratio) HT29” value was 220.
Consider `COC(=O)c1ccc2c([N+](=O)[O-])cc3c(c2c1)C(CCl)CN3C(=O)c1cc2cc(OCCN(C)C)ccc2[nH]1` (stereo not drawn) [Compound 42, Methyl 1-(chloromethyl)-3-{5-[2-(dimethylamino)ethoxy]indol-2-carbonyl}-5-nitro-1,2-dihydro-3H-benzo[e]indole-8-carboxylate], for which the IC50 is 0.52 µM in data set [1] (Homo sapiens, SK-OV-3) and 0.55 µM in data set [2] (Homo sapiens, HT-29). Moreover, the “HCR (hypoxic cytotoxicity ratio) SKOV3” value in data set [1] was 2.4. Moreover, the “HCR (hypoxic cytotoxicity ratio) HT29” value in data set [2] amounted to 1.6.
In the same order, the values of `CN(C)CCOc1ccc2[nH]c(C(=O)N3CC(CCl)c4c3cc([N+](=O)[O-])c3cc(S(=O)(=O)N(C)C)ccc43)cc2c1` (stereo not drawn) [Compound 38, 1-(Chloromethyl)-3-{5-[2-(dimethylamino)ethoxy]indol-2-carbonyl}-N,N-dimethyl-5-nitro-1,2-dihydro-3H-benzo[e]indole-7-sulfonamide] are 0.5 µM, 1.1 µM, 2.4 and 3.6.
Regarding `CNS(=O)(=O)c1ccc2c3c(cc([N+](=O)[O-])c2c1)N(C(=O)c1cc2cc(OCCN(C)C)ccc2[nH]1)CC3CCl` (stereo not drawn) [Compound 32, 1-(Chloromethyl)-3-{5-[2-(dimethylamino)ethoxy]indol-2-carbonyl}-N-methyl-5-nitro-1,2-dihydro-3H-benzo[e]indole-7-sulfonamide], the IC50 in data set [1] (Homo sapiens, SK-OV-3) was determined as 2.6 µM; in data set [2] (Homo sapiens, HT-29), 2.7 µM. Besides, in data set [1], the “HCR (hypoxic cytotoxicity ratio) SKOV3” value came out at 21. In data set [2], the “HCR (hypoxic cytotoxicity ratio) HT29” value was determined as 24.
Consider `COc1cc2cc(C(=O)N3CC(CCl)c4c3cc([N+](=O)[O-])c3cc(C#N)ccc43)[nH]c2c(OC)c1OC` (stereo not drawn) [Compound 21], for which, in data set [1], the IC50 worked out at 6.4 µM and the “HCR (hypoxic cytotoxicity ratio) SKOV3” value is recorded as 13. Besides, in data set [2], 5.3 µM corresponded to half-maximal inhibition (IC50) and the “HCR (hypoxic cytotoxicity ratio) HT29” value stood at 2.5.
Take `COc1cc2cc(C(=O)N3CC(CCl)c4c3cc([N+](=O)[O-])c3ccc(C(=O)NCCN(C)C)cc43)[nH]c2c(OC)c1OC` (stereo not drawn) [Compound 44, 1-(Chloromethyl)-N-[2-(dimethylamino)ethyl]-5-nitro-3-(5,6,7-trimethoxyindol-2-carbonyl)-1,2-dihydro-3H-benzo[e]indole-8-carboxamide]: the IC50 in data set [1] (Homo sapiens, SK-OV-3) was determined as 2.5 µM; in data set [2] (Homo sapiens, HT-29), 1.3 µM. Further, the “HCR (hypoxic cytotoxicity ratio) SKOV3” value in data set [1] amounted to 16. In data set [2], the “HCR (hypoxic cytotoxicity ratio) HT29” value is 2.4.
